Data: patent US20070155730A1, “Benzodiazepine And Benzopiperazine Analog Inhibitors Of Histone Deacetylase” (METHYLGENE, INC., priority 2005, published 2007)

biological target: histone deacetylase (HDAC); assay: Inhibition of Histone Deacetylase Enzymatic Activity; format: biochemical; details: substrate Boc-Lys(Ac)-AMC, Fluor-de-Lys developer, 37° C., 20 min; against one or more of HDAC-1 to HDAC-11, SirT1 to SirT7 (isoform not given); read-out: HDAC Inhibitory Activity (IC50)
Protocol: The following protocol is used to assay the compounds of the invention. In the assay, the buffer used is 25 mM HEPES, pH 8.0, 137 mM NaCl, 2.7 mM KCl, 1 mM MgCl2 and the substrate is Boc-Lys(Ac)-AMC in a 50 mM stock solution in DMSO. The enzyme stock solution is 4.08 μg/mL in buffer.
The compounds are pre-incubated (2 μl in DMSO diluted to 13 μl in buffer for transfer to assay plate) with enzyme (20 μl of 4.08 μg/mL) for 10 min at room temperature (35 μl pre-incubation volume). The mixture is pre-incubated for 5 min at room temperature. The reaction is started by bringing the temperature to 37° C. and adding 16 μl substrate. Total reaction volume is 50 μl. […] A plate is incubated in the dark for 10 min at room temperature before reading (λEX=360 nm, λEm=470 nm, Cutoff filter at 435 nm).
In the table, “A” indicates inhibitory activity at a concentration of <0.05 μM; “B” indicates inhibitory activity at a concentration >0.05 μM but <0.5 μM, “C” indicates inhibitory activity at >0.5 μM but <2 μM and “D” indicates inhibitory activity at a concentration of >2 μM but <10 μM.

| IC50 [nM] | Compound |
| --- | --- |
| < 50 | O=C(NO)c1ccc(CN2C(=O)CNC(=O)[C@H]2Cc2c[nH]c3ccccc23)cc1 [Compound 136a, (R)-4-((2-((1H-Indol-3-yl)methyl)-3,6-dioxopiperazin-1-yl)methyl)-N-hydroxybenzamide] |
| 50 to 500 | O=C(NO)c1cccc(NC(=O)N2c3ccccc3NC(=O)[C@H]2Cc2ccc(F)c(F)c2)c1 [Compound 118, (R)-2-(3,4-difluorobenzyl)-N-(3-(hydroxycarbamoyl)phenyl)-3-oxo-3,4-dihydroquinoxaline-1(2H)-carboxamide] |
| 2000 to 10000 | O=C(NO)c1ccc2c(c1)NC(=O)[C@H](Cc1ccc(O)cc1)N2 [Compound 6h, (S)-2-(4-Hydroxybenzyl)-1,2,3,4-tetrahydro-N-hydroxy-3-oxoquinoxaline-6-carboxamide] |
| 2000 to 10000 | O=C(NO)c1ccc2c(c1)NC(=O)[C@@H](CC1CCCCC1)NC2=O [Compound 97g, (R)-3-(Cyclohexylmethyl)-N-hydroxy-2,5-dioxo-2,3,4,5-tetrahydro-1H-benzo[e][1,4]diazepine-8-carboxamide] |
| 50 to 500 | O=C(CCCCCC1NC(=O)c2cc(Oc3ccccc3)ccc2NC1=O)NO (stereo not shown) [Compound 88a, 6-(2,3,4,5-Tetrahydro-2,5-dioxo-7-phenoxy-1H-benzo[e][1,4]diazepin-3-yl)-N-hydroxyhexanamide] |
| 500 to 2000 | O=C(/C=C/c1ccc2c(c1)NC(=O)[C@H](Cc1c[nH]c3ccccc13)N2)NO [Compound 66c, (E)-3-((S)-2-((1H-indol-3-yl)methyl)-1,2,3,4-tetrahydro-3-oxoquinoxalin-6-yl)-N-hydroxyacrylamide] |
| 2000 to 10000 | O=C(NO)c1ccc2c(c1)NC(=O)[C@@H](c1ccccc1)NC2=O [Compound 97j, (R)-N-Hydroxy-2,5-dioxo-3-phenyl-2,3,4,5-tetrahydro-1H-benzo[e][1,4]diazepine-8-carboxamide] |
| 500 to 2000 | O=C(NO)c1ccc2c(c1)NC(=O)[C@H](CC1CCCCC1)NC2=O [Compound 97h, (S)-3-(Cycbohexylmethyl)-N-hydroxy-2,5-dioxo-2,3,4,5-tetrahydro-1H-benzo[e][1,4]diazepine-8-carboxamide] |
| 2000 to 10000 | Cc1cc(C)c(S(=O)(=O)N2c3ccc(C(=O)NO)cc3NC(=O)[C@@H]2C(C)C)c(C)c1 [Compound 18c, (S)—N-hydroxy-2-isopropyl-3-oxo-1-(2,4,6-trimethybenzenesulfonyl)-1,2,3,4-tetrahydroquinoxaline-6-carboxamide] |
| 500 to 2000 | Cn1cc(C[C@@H]2Nc3ccc(C(=O)NO)cc3NC2=O)c2ccccc21 [Compound 4l, (S)-1,2,3,4-tetrahydro-N-hydroxy-2-((1-methyl-1-H-indol-3-yl)methyl)-3-oxoquinoxaline-6-carboxamide] |
| < 50 | O=C(NO)c1ccc(CN2c3ccccc3NC(=O)[C@H]2Cc2cccnc2)cc1 [Compound 54b21, (R)—N-hydroxy-4-((3-oxo-2-(pyridin-3-ylmethyl)-3,4-dihydroquinoxalin-1(2H)-yl)methyl)benzamide] |
| 2000 to 10000 | CSCC[C@@H]1Nc2ccc(C(=O)NO)cc2NC1=O [Compound 4b, (S)-1,2,3,4-tetrahydro-N-hydroxy-2-(2-(methylthio)ethyl)-3-oxoquinoxaline-6-carboxamide] |
| 500 to 2000 | O=C(NO)c1ccc2c(c1)NC(=O)[C@H](Cc1c[nH]c3ccccc13)NC2=O [Compound 97c, (S)-3-((1H-Indol-3-yl)methyl)-N-hydroxy-2,5-dioxo-2,3,4,5-tetrahydro-1H-benzo[e][1,4]diazepine-8-carboxamide] |
| 2000 to 10000 | CC(C)C[C@H]1NC(=O)c2ccc(C(=O)NO)cc2NC1=O [Compound 97f, (R)-N-Hydroxy-3-isobutyl-2,5-dioxo-2,3,4,5-tetrahydro-1H-benzo[e][1,4]diazepine-8-carboxamide] |
| 2000 to 10000 | O=C1CNC(=O)c2ccc(C(=O)NO)cc2N1 [Compound 97k, N-Hydroxy-2,5-dioxo-2,3,4,5-tetrahydro-1H-benzo[e][1,4]diazepine-8-carboxamide] |
| < 50 | O=C(NO)c1ccc(CN2c3ccccc3NC(=O)[C@H]2Cc2ccoc2)cc1 [Compound 54b20, (R)-4-((2-(furan-3-ylmethyl)-3-oxo-3,4-dihydroquinoxalin-1(2H)-yl)methyl)-N-hydroxybenzamide] |
| 500 to 2000 | C[C@@H]1NC(=O)c2ccccc2N(CCCCCC(=O)NO)C1=O [Compound 68b22, 6-((S)-2,3,4,5-Tetrahydro-3-methyl-2,5-dioxobenzo[e][1,4]diazepin-1-yl)-N-hydroxyhexanamide] |
| 2000 to 10000 | O=C(NO)c1ccc2c(c1)NC(=O)[C@H](c1ccccc1)NC2=O [Compound 97i, (S)-N-Hydroxy-2,5-dioxo-3-phenyl-2,3,4,5-tetrahydro-1H-benzo[e][1,4]diazepine-8-carboxamide] |

Further lines, the compound ahead of its results:

| Compound | IC50 [nM] |
| --- | --- |
| O=C1CN(Cc2ccc(C(=O)NO)cc2)c2ccccc2N1 [Compound 54b1, N-hydroxy-4-((3-oxo-3,4-dihydroquinoxalin-1(2H)-yl)methyl)-benzamide] | < 50 |
| CC(C)C[C@H]1NC(=O)c2ccccc2N(CCCCCC(=O)Nc2cscc2N)C1=O [Compound 72, N-(4-Aminothiophen-3-yl)-6-((R)-2,3,4,5-tetrahydro-3-isobutyl-2,5-dioxobenzo[e][1,4]diazepin-1-yl)hexanamide] | 2000 to 10000 |
| O=C(NO)c1ccc(CN2c3ccccc3NC(=O)[C@H]2Cc2cccs2)cc1 [Compound 56a, 4-(((R)-2,3-Dihydro-2-oxo-3-((thiophen-2-yl)methyl)quinoxalin-4(1H)-yl)methyl)-N-hydroxybenzamide] | 500 to 2000 |
| O=C(NO)c1ccc(CN2c3ccccc3NC(=O)[C@@H]2Cc2cccs2)cc1 [Compound 54a1, 4-(((S)-2,3-Dihydro-2-oxo-3-((thiophen-2-yl)methyl)quinoxalin-4(1H)-yl)methyl)-N-hydroxybenzamide] | 50 to 500 |
| COc1ccc(CN2c3ccccc3NC(=O)[C@H]2CCC(=O)CCC(=O)NO)cc1 [Compound 43, 6-((R)-1-(4-methoxybenzyl)-1,2,3,4-tetrahydro-3-oxoquinoxalin-2-yl)-N-hydroxy-4-oxy-hexanamide] | 2000 to 10000 |
| O=C(NO)c1ccc(CN2c3ccccc3NC(=O)[C@H]2Cc2cccc(C(F)(F)F)c2)cc1 [Compound 54b19, (R)—N-hydroxy-4-((2-(3-(trifluoromethyl)benzyl)-3-oxo-3,4-dihydroquinoxalin-1(2H)-yl)methyl)benzamide] | 50 to 500 |
| O=C(NO)c1ccc(CN2C(=O)CNC(=O)[C@H]2Cc2cccs2)cc1 [Compound 136c, (R)-4-((3,6-Dioxo-2-(thien-2-ylmethyl)piperazin-1-yl)methyl)-N-hydroxybenzamide] | 50 to 500 |
| O=C(NO)c1ccc(CN2c3ccccc3NC(=O)[C@H]2Cc2ccc(C(F)(F)F)cc2)cc1 [Compound 54b17, (R)-4-((2-(4-trifluoromethylbenzyl)-3-oxo-3,4-dihydroquinoxalin-1(2H)-yl)methyl)-N-hydroxybenzamide] | 50 to 500 |
| CC(C)C[C@H]1NC(=O)c2ccccc2N(CCCCCC(=O)Nc2ccccc2N)C1=O [Compound 71, N-(2-Aminophenyl)-6-((R)-2,3,4,5-tetrahydro-3-isobutyl-2,5-dioxobenzo[e][1,4]diazepin-1-yl)hexanamide] | 2000 to 10000 |
| CC(C)[C@H]1Nc2ccc(NC(=O)CCCCCCC(=O)NO)cc2NC1=O [Compound 24e, N1—((R)-1,2,3,4-Tetrahydro-2-isopropyl-3-oxoquinoxalin-6-yl)-N8-hydroxyoctanediamide] | < 50 |
| COc1ccc(CN2c3ccccc3NC(=O)C2CCCCCC(=O)Nc2cc(-c3cccs3)ccc2N)cc1 (stereo not shown) [Compound 49, 6-(1-(4-methoxybenzyl)-1,2,3,4-tetrahydro-3-oxoquinoxalin-2-yl)-N-(2-amino-5-(thiophen-2-yl)phenyl)hexanamide] | 50 to 500 |
| COc1ccc(CN2c3ccccc3NC(=O)C2CCCCCC(=O)NO)cc1 (stereo not shown) [Compound 47a, 6-(1-(4-methoxybenzyl)-1,2,3,4-tetrahydro-3-oxoquinoxalin-2-yl)-N-hydroxyhexanamide] | 50 to 500 |
| O=C(NO)c1ccc(CN2c3ccccc3NC(=O)[C@H]2CCc2ccccc2)cc1 [Compound 54b7, (R)—N-hydroxy-4-((3-oxo-2-phenethyl-3,4-dihydroquinoxalin-1(2H)-yl)methyl)benzamide] | < 50 |
| O=C(NO)c1ccc(CN2c3ccccc3NC(=O)[C@H]2Cc2c[nH]c3ccccc23)cc1 [Compound 54b2, (R)-4-((2-((1H-indol-3-yl)methyl)-3-oxo-3,4-dihydroquinoxalin-1(2H)-yl)methyl)-N-hydroxybenzamide] | < 50 |
| CC(C)(C)Oc1ccc(C[C@@H]2Nc3ccc(C(=O)NO)cc3NC2=O)cc1 [Compound 4h, (S)-2-(4-tert-butoxybenzyl)-1,2,3,4-tetrahydro-N-hydroxy-3-oxoquinoxaline-6-carboxamide] | 2000 to 10000 |
| O=C(CCCCCN1C(=O)[C@H](Cc2c[nH]c3ccccc23)NC(=O)c2ccccc21)NO [Compound 68b7, 6-((S)-3-((1H-Indol-3-yl)methyl)-2,3,4,5-tetrahydro-2,5-dioxobenzo[e][1,4]diazepin-1-yl)-N hydroxyhexanamide] | 2000 to 10000 |
